The assay deals with T1, fibrin gels (40 mg/mL fibrinogen, 33 U/mL thrombin) (Homo sapiens, UniProt P02671+P02675+P02679).
T1 construct: purchased Ethicon (Evicel)
T1 sequence (P02671 20-644 isoform P02671-2 limits assumed): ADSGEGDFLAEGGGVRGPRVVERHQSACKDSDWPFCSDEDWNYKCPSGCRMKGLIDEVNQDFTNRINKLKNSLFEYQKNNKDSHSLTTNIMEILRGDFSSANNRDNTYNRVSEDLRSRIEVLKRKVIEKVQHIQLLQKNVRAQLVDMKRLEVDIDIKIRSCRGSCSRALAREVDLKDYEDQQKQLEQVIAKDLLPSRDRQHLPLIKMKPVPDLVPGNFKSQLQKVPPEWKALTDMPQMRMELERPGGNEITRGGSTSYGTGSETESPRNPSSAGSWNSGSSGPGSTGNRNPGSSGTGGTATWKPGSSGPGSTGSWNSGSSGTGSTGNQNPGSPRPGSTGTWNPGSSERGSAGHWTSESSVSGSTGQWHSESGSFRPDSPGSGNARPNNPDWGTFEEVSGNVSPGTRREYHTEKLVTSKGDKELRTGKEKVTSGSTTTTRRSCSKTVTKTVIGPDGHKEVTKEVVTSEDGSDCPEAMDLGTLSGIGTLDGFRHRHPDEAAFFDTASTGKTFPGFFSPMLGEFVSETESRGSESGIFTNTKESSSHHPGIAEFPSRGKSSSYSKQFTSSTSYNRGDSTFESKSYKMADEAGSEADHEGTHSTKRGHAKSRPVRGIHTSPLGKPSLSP
T1 sequence (P02675 45-491 limits assumed): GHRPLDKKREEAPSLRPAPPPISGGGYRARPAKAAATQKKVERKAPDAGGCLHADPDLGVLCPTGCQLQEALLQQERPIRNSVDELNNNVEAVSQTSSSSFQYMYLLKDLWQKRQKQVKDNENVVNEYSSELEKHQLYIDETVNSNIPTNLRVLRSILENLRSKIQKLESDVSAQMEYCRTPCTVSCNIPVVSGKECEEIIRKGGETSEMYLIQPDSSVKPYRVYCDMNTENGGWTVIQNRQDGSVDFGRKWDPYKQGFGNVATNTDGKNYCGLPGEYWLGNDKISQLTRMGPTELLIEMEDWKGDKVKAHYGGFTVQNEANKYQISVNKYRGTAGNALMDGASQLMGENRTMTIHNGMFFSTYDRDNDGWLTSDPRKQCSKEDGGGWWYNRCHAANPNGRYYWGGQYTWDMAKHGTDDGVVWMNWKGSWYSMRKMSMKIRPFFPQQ
T1 sequence (P02679 27-437 isoform P02679-2 limits assumed): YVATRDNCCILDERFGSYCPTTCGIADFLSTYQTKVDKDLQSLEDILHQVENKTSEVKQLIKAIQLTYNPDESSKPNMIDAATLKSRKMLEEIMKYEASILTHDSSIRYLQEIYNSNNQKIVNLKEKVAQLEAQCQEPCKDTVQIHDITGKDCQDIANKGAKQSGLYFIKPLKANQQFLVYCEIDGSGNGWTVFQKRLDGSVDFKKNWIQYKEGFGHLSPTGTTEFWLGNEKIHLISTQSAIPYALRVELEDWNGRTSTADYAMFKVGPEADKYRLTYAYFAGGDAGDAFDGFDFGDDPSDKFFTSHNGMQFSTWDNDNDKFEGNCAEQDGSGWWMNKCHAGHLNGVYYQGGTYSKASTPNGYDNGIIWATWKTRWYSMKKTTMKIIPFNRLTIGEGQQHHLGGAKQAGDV
As to the kind of experiment: Transmission electron microscopy of fibrin gel cross sections. The following applies: TEM, 0.12% w/v dye. The procedure: Both scanning electron microscopy (SEM) and transmission electron microscopy (TEM) were performed to investigate the effect of the chemical additives on fibril formation microstructure. Gels were made with PBS, TB, or EB as described elsewhere (see, e.g., Gandhi et al., 2018 Acta Biomater., 67:134-46) with the following modifications. Briefly, a mixture of 40 mg/mL fibrinogen, 33 U/mL thrombin, and 0.12% w/v dye final concentrations was plated into a custom acetal mold to create the 300 μm sheet. After a 2 hour incubation at 37° C., the gels were hydrated in PBS for a minimum of 15 minutes.
The gels were then fixed overnight in 2.5% paraformaldehyde and 1% glutaraldehyde in 0.1 M phosphate buffer pH 7 containing 1.0 mM MgCl2 and 0.13 mM CaCl2. After fixation, gels were processed for scanning electron microscopy (SEM). Samples for TEM were processed by initially dehydrating the gels, embedding into plastic resin, and sectioned at a thickness of 100 nm. SEM imaging was performed using a Hitachi S-4700 (Hitachi High Technologies; Schaumburg, IL) microscope. Sections processed for TEM were imaged used a JEOL 1400 microscope (JEOL; Peabody, MA).
TEM was then performed to visualize the cross section of the fibrin gels. […] The PBS fibrin gel appears to have larger mesh spaces, with a large range of fibril diameters and orientation. […]

Take `Cc1cc(-c2ccc(/N=N/c3c(S(=O)(=O)O)cc4cc(S(=O)(=O)O)cc(N)c4c3O)c(C)c2)ccc1/N=N/c1c(S(=O)(=O)O)cc2cc(S(=O)(=O)O)cc(N)c2c1O` [TB, Trypan Blue]: the largest fibril diameters is 50-75 nm.

Regarding `Cc1cc(-c2ccc(/N=N/c3ccc4c(S(=O)(=O)O)cc(S(=O)(=O)O)c(N)c4c3O)c(C)c2)ccc1/N=N/c1ccc2c(S(=O)(=O)O)cc(S(=O)(=O)O)c(N)c2c1O` [EB, Evans Blue], the largest fibril diameters is reported as 40-60 nm.

The record behind these values is patent US20230414826A1, “FIBRIN HYDROGELS” (Mayo Foundation for Medical Education and Research, priority 2020, published 2023).
